We go through nine compounds from US20070110779A1, “Activated peroxide solutions and a process for the preparation thereof” (ASEPTIX TECHNOLOGIES B.V., priority 2005, published 2007).

A short description of data set [1]: pH measurement of the solution. It counts as physicochemical. As to the method:
(§1) The peroxide concentration is determined by a potassium permanganate titration procedure and the devices used for the measurement of pH, ORP and conductivity are a WTW 537, a Testo 230 ORP and a HANNA EC device, respectively.

A short description of data set [2]: oxidation-reduction potential (ORP) measurement of the solution. Format: physicochemical. As to the method:
as §1

The nature of data set [3]: electrical conductivity measurement of the solution. Format: physicochemical. As to the method: as §1
For the next data set, the system named is Escherichia coli. Description: bactericidal suspension test conform EN 1040 (Example 1). Format: cell-based. The following applies: after 5 minutes. As to the method: (§2) In a controlled bactericidal suspension test conform European Norm for testing of basic bactericidal activity of chemical disinfectants and antiseptics EN 1040, a 1 ml McFarland standard 0.5 (10^8 microorganisms per ml) was mixed 1:8 with the activated peroxide solution and 1 ml milli-Q water. After 10 minutes, Staphylococcus aureus was killed 100%, while Escherichia coli, Salmonella typhimurium, Rhodotorula rubra and Pseudomonas aeruginosa were all killed 100% already after 5 minutes. A 100% kill typically is shown by at least a log 5 reduction.

In the next data set the test system is Pseudomonas aeruginosa. The description is as above. Format: cell-based. The following applies: after 5 minutes. As to the method:
as §2

The subject of a further data set is Rhodotorula rubra. The data set is described as above. Format: cell-based. The following applies: after 5 minutes. As to the method:
as §2

The subject of another data set is Salmonella typhimurium. The data set is described as above. Format: cell-based. The following applies: after 5 minutes. As to the method: as §2
The subject of another data set is Staphylococcus aureus. Described as above. Format: cell-based. As to the method: as §2
Data set [4] has as its system Corynebacterium minitissium. Description: test of corona treated solution against strains of bacteria (Example 3). Format: cell-based. The following applies: after 5 minutes. As to the method:
(§3) The corona treated solution was then tested against several strains of bacteria and compared to untreated solutions of 1% hydrogen peroxide.

Another data set has as its system E. coli. The description is as above. The following applies: after 5 minutes. Format: cell-based. As to the method: as §3
The subject of a further data set is Lysteria. Described as above. Format: cell-based. The following applies: after 5 minutes. As to the method:
as §3

Each structure is given as a SMILES string. Read-outs that look alike come from different tables or passages of the source.

Turning to `OO` [0.1% H2O2, hydrogen peroxide], in data set [1], the “pH of the solution” value is on record as “approximately 4.9”. The “ORP of the solution” value in data set [2] turned out to be 355 mV. Moreover, the conductivity in data set [3] came to 20 μS/cm.
`OO` [0.5% H2O2, hydrogen peroxide]: the “pH of the solution” value in data set [1] was “approximately 4.6”. Further, the “ORP of the solution” value in [2] came out at 374 mV. The conductivity result in data set [3] is “approximately 21 μS/cm”.
`OO` [1.6% common hydrogen peroxide solution, hydrogen peroxide]: the killed with Escherichia coli, in the data set on Pseudomonas aeruginosa and in the data set with Rhodotorula rubra was below 100% in each case. The compound further gave a killed / reduction in the data set with Salmonella typhimurium of 70%. Further, the reduction entry in the data set with Staphylococcus aureus (after 5 minutes) was “none”; in the data set on Staphylococcus aureus (after 20 minutes) it was 50%.
Take `OO` [3% H2O2, hydrogen peroxide]: in [1], the “pH of the solution” value is reported as “approximately 3.9”. Also, the “ORP of the solution” value in data set [2] worked out at 411 mV. The compound also came in with a conductivity in data set [3] of 60 μS/cm.
`OO` [5% H2O2, hydrogen peroxide]: in data set [1], the “pH of the solution” value was “approximately 3.7”. Moreover, in data set [2], the “ORP of the solution” value is given as 428 mV. Also, the conductivity in data set [3] is 90 μS/cm.
In the case of `OO` [10% H2O2, hydrogen peroxide], the “pH of the solution” value in data set [1] was “approximately 3.3”. Moreover, the “ORP of the solution” value in [2] is 446 mV. The compound further had a conductivity in [3] of 110 μS/cm.
For the compound `OO` [Example 1 solution before activation, hydrogen peroxide], in data set [1], the “pH of the solution” value is given as 5.8.
Regarding `OO` [Example 3 starting solution, hydrogen peroxide], the “pH of the solution” value in data set [1] turned out to be 4.5. In data set [2], the “ORP of the solution” value stood at 380 mV. Besides, the conductivity in [3] turned out to be 17.8 microSiemens/cm.
As to `OO` [standard 1% hydrogen peroxide, hydrogen peroxide], the reduced with log entry (in data set [4]; with E. coli; in the data set with Lysteria) was “no countable reduction” in each case. For the same compound, the “pH of the solution” value in data set [1] (listed as 1% H2O2) is reported as “approximately 4.4”. For the same compound, in [2] (listed as 1% H2O2), the “ORP of the solution” value worked out at 390 mV. In data set [3] (listed as 1% H2O2), this compound came in with a conductivity of 30 μS/cm.
